Legend:
Format in all cases: in vivo
[1] = test system: broadleaf signalgrass (Brachiaria decumbens); experiment: Test B pre-/postemergence; set-up: key: 0 is no effect; 10 is complete control
Outline: (§1)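 Scored visually 0 (none) to 10 (complete control) against untreated plants after twelve to sixteen greenhouse days. Test chemicals, formulated in surfactant-containing non-phytotoxic solvent, applied to soil after planting and, separately, onto 1- to 4-leaf (2–18 cm) plants.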

[2] = test system: momingglory (Ipomoea hederacea); experiment: Test B pre-/postemergence; set-up: key: 0 is no effect; 10 is complete control
Outline: as §1

corn (Zea mays) = experiment: Test B pre-/postemergence; set-up: key: 0 is no effect; 10 is complete control
Outline: as §1

[3] = test system: wheat (Triticum aestivum); experiment: Test B pre-/postemergence; set-up: key: 0 is no effect; 10 is complete control
Outline: as §1

[4] = test system: bedstraw (Galium aparine); experiment: Test B pre-/postemergence; set-up: key: 0 is no effect; 10 is complete control
Outline: as §1

[5] = test system: pigweed (Amaranthus retroflexus); experiment: Test B pre-/postemergence; set-up: key: 0 is no effect; 10 is complete control
Outline: as §1

[6] = test system: cocklebur (Xanthium strumarium); experiment: Test B pre-/postemergence; set-up: key: 0 is no effect; 10 is complete control
Outline: as §1

[7] = test system: sugar beet (Beta vulgaris); experiment: Test B pre-/postemergence; set-up: key: 0 is no effect; 10 is complete control
Outline: as §1

[8] = test system: velvetleaf (Abutilon theophrasti); experiment: Test B pre-/postemergence; set-up: key: 0 is no effect; 10 is complete control
Outline: as §1

rape (Brassica napus) = experiment: Test B pre-/postemergence; set-up: key: 0 is no effect; 10 is complete control
Outline: as §1

[9] = test system: giant foxtail (Setaria faberii); experiment: Test B pre-/postemergence; set-up: key: 0 is no effect; 10 is complete control
Outline: as §1

[10] = test system: bamyardgrass (Echinochloa crus-galli); experiment: Test B flood test; details: for Plant response rating, Barnyardgrass: Postemergence (flood test species)
Outline: (§2)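 Flood test on plants grown to the 2-leaf stage; treated plants kept in greenhouse twelve to sixteen days, then visually rated against controls on a 0 (no effect) to 10 (complete control) scale.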

[11] = test system: duck salad (Heteranthera limosa); experiment: Test B flood test; details: for Plant response rating, Ducksalad: Postemergence (flood test species)
Outline: as §2

[12] = test system: smallflower flatsedge (Cyperus difformis); experiment: Test B flood test; details: for Plant response rating, S. Flatsedge: Postemergence (flood test species)
Outline: as §2

rice (Oryza sativa) = experiment: Test B flood test; details: for Plant response rating, Rice: Postemergence (flood test species)
Outline: as §2

[13] = Preemergence, Rate 62 g/ha, scale of 0 to 10
[14] = Rate 62 g/ha, Postemergence (flood test)
[15] = Rate 125 g/ha, Postemergence section (flood test species)

Cc1cnc(-n2cnc(C(F)(F)F)n2)nc1C(=O)c1cccc(OC(F)(F)F)c1 [Compound 64]
9: Plant response rating, B. signalgrass ([1]; Rate 125 g/ha, Preemergence) | Plant response rating, Bedstraw ([4]; Rate 500 g/ha, Postemergence) | Plant response rating, Bedstraw ([4]; Rate 500 g/ha, Preemergence) | Plant response rating, Redroot pigweed [5, 13] | Redroot pigweed plant response rating ([5]; Rate 125 g/ha, Postemergence) | Plant response rating, Redroot pigweed ([5]; Rate 125 g/ha, Preemergence) | Plant response rating, Cocklebur ([6]; Rate 500 g/ha, Postemergence) | Plant response rating, Sugarbeets [7, 13] | Sugarbeets plant response rating ([7]; Rate 62 g/ha, Postemergence) | Plant response rating, Velvetleaf ([8]; Rate 500 g/ha, Postemergence) | Plant response rating, Ducksalad ([11]; Rate 500 g/ha) | Plant response rating, S. Flatsedge ([12]; Rate 500 g/ha)
8: B. signalgrass plant response rating ([1]; Rate 62 g/ha, Preemergence) | Plant response rating, B. signalgrass ([1]; Rate 500 g/ha, Postemergence) | Morningglory plant response rating ([2]; Rate 125 g/ha, Postemergence) | Plant response rating, Morningglory ([2]; Rate 250 g/ha, Postemergence) | Plant response rating, Morningglory ([2]; Rate 500 g/ha, Postemergence) | Plant response rating, Bedstraw ([4]; Rate 125 g/ha, Preemergence) | Plant response rating, Bedstraw ([4]; Rate 250 g/ha, Preemergence) | Redroot pigweed plant response rating ([5]; Rate 62 g/ha, Postemergence) | Plant response rating, Velvetleaf ([8]; Rate 250 g/ha, Postemergence) | Plant response rating, Rape (rape (Brassica napus); Rate 250 g/ha, Preemergence) | S. Flatsedge plant response rating [12, 14] | S. Flatsedge plant response rating [12, 15] | Plant response rating, S. Flatsedge ([12]; Rate 250 g/ha)
4: B. signalgrass plant response rating ([1]; Rate 62 g/ha, Postemergence) | Plant response rating, Morningglory [2, 13] | Plant response rating, Corn (corn (Zea mays); Rate 250 g/ha, Postemergence) | Plant response rating, Corn (corn (Zea mays); Rate 250 g/ha, Preemergence) | Plant response rating, Corn (corn (Zea mays); Rate 500 g/ha, Preemergence) | Bedstraw plant response rating ([4]; Rate 125 g/ha, Postemergence) | Plant response rating, Velvetleaf [8, 13] | Rape plant response rating (rape (Brassica napus); Rate 125 g/ha, Postemergence) | Plant response rating, Rape (rape (Brassica napus); Rate 125 g/ha, Preemergence) | Plant response rating, Rape (rape (Brassica napus); Rate 250 g/ha, Postemergence) | Plant response rating, Rape (rape (Brassica napus); Rate 500 g/ha, Postemergence) | Plant response rating, Giant foxtail ([9]; Rate 250 g/ha, Postemergence) | Plant response rating, Barnyardgrass ([10]; Rate 250 g/ha) | Ducksalad plant response rating [11, 14]
5: B. signalgrass plant response rating ([1]; Rate 125 g/ha, Postemergence) | Plant response rating, Corn (corn (Zea mays); Rate 500 g/ha, Postemergence) | Plant response rating, Wheat ([3]; Rate 500 g/ha, Postemergence) | Plant response rating, Giant foxtail ([9]; Rate 250 g/ha, Preemergence) | Plant response rating, Giant foxtail ([9]; Rate 500 g/ha, Postemergence) | Plant response rating, Barnyardgrass ([10]; Rate 500 g/ha)
1: Corn plant response rating (corn (Zea mays); Rate 62 g/ha, Postemergence) | Plant response rating, Wheat ([3]; Rate 250 g/ha, Preemergence) | Plant response rating, Cocklebur [6, 13] | Plant response rating, Cocklebur ([6]; Rate 125 g/ha, Preemergence) | Plant response rating, Giant foxtail [9, 13] | Giant foxtail plant response rating ([9]; Rate 62 g/ha, Postemergence) | Rice plant response rating (rice (Oryza sativa); [14]) | Rice plant response rating (rice (Oryza sativa); [15])
7: Plant response rating, Bedstraw ([4]; Rate 250 g/ha, Postemergence) | Cocklebur plant response rating ([6]; Rate 125 g/ha, Postemergence) | Plant response rating, Cocklebur ([6]; Rate 250 g/ha, Postemergence) | Plant response rating, Cocklebur ([6]; Rate 500 g/ha, Preemergence) | Velvetleaf plant response rating ([8]; Rate 125 g/ha, Postemergence)
10: Plant response rating, B. signalgrass ([1]; Rate 250 g/ha, Preemergence) | Plant response rating, B. signalgrass ([1]; Rate 500 g/ha, Preemergence) | Plant response rating, Morningglory ([2]; Rate 125 g/ha, Preemergence) | Plant response rating, Morningglory ([2]; Rate 250 g/ha, Preemergence) | Plant response rating, Morningglory ([2]; Rate 500 g/ha, Preemergence) | Plant response rating, Redroot pigweed ([5]; Rate 250 g/ha, Postemergence) | Plant response rating, Redroot pigweed ([5]; Rate 250 g/ha, Preemergence) | Plant response rating, Redroot pigweed ([5]; Rate 500 g/ha, Postemergence) | Plant response rating, Redroot pigweed ([5]; Rate 500 g/ha, Preemergence) | Sugarbeets plant response rating ([7]; Rate 125 g/ha, Postemergence) | Plant response rating, Sugarbeets ([7]; Rate 125 g/ha, Preemergence) | Plant response rating, Sugarbeets ([7]; Rate 250 g/ha, Postemergence) | Plant response rating, Sugarbeets ([7]; Rate 250 g/ha, Preemergence) | Plant response rating, Sugarbeets ([7]; Rate 500 g/ha, Postemergence) | Plant response rating, Sugarbeets ([7]; Rate 500 g/ha, Preemergence) | Plant response rating, Velvetleaf ([8]; Rate 500 g/ha, Preemergence) | Plant response rating, Rape (rape (Brassica napus); Rate 500 g/ha, Preemergence)
0: Plant response rating, Wheat [3, 13] | Plant response rating, Wheat ([3]; Rate 125 g/ha, Preemergence)
6: Plant response rating, B. signalgrass ([1]; Rate 250 g/ha, Postemergence) | Cocklebur plant response rating ([6]; Rate 62 g/ha, Postemergence) | Plant response rating, Velvetleaf ([8]; Rate 125 g/ha, Preemergence) | Plant response rating, Velvetleaf ([8]; Rate 250 g/ha, Preemergence) | Plant response rating, Giant foxtail ([9]; Rate 500 g/ha, Preemergence) | Ducksalad plant response rating [11, 15] | Plant response rating, Ducksalad ([11]; Rate 250 g/ha)
2: Morningglory plant response rating ([2]; Rate 62 g/ha, Postemergence) | Wheat plant response rating ([3]; Rate 62 g/ha, Postemergence) | Plant response rating, Wheat ([3]; Rate 500 g/ha, Preemergence) | Velvetleaf plant response rating ([8]; Rate 62 g/ha, Postemergence) | Plant response rating, Giant foxtail ([9]; Rate 125 g/ha, Preemergence) | Barnyardgrass plant response rating [10, 14] | Plant response rating, Rice (rice (Oryza sativa); Rate 250 g/ha)
3: Plant response rating, Corn (corn (Zea mays); [13]) | Corn plant response rating (corn (Zea mays); Rate 125 g/ha, Postemergence) | Plant response rating, Corn (corn (Zea mays); Rate 125 g/ha, Preemergence) | Wheat plant response rating ([3]; Rate 125 g/ha, Postemergence) | Plant response rating, Wheat ([3]; Rate 250 g/ha, Postemergence) | Plant response rating, Bedstraw [4, 13] | Bedstraw plant response rating ([4]; Rate 62 g/ha, Postemergence) | Plant response rating, Rape (rape (Brassica napus); [13]) | Rape plant response rating (rape (Brassica napus); Rate 62 g/ha, Postemergence) | Giant foxtail plant response rating ([9]; Rate 125 g/ha, Postemergence) | Barnyardgrass plant response rating [10, 15] | Plant response rating, Rice (rice (Oryza sativa); Rate 500 g/ha)
